Measured values published in patent publication US20170121322A1, “BET-PROTEIN INHIBITING 3,4-DIHYDROPYRIDO[2,3-B]PYRAZINONES WITH META-SUBSTITUTED AROMATIC AMINO- OR ETHER GROUPS” (Bayer Pharma Aktiengesellschaft, priority 2014, published 2017).

What was measured:
MOLM-13 cells = assay: Cell proliferation assay MOLM-13, method 1 (alamarBlue); type: cell-based; settings: Homo sapiens, acute myeloid leukaemia cells, 4000 cells/well, 96-well, 96 hours
Method: (§1) In accordance with the invention, the ability of the substances to inhibit cell proliferation was determined. Cell viability was determined by means of the alamarBlue® reagent (Invitrogen) in a Victor X3 Multilabel Reader (Perkin Elmer). The excitation wavelength was 530 nm and the emission wavelength […].
The MOLM-13 cells (DSMZ, ACC 554) were seeded at a concentration of 4000 cells/well in 100 μl of growth medium (RPMI1640, 10% FCS) on 96-well microtitre plates (method 1).
(§2) After overnight incubation at 37° C., the fluorescence values (CI values) were determined. Then the plates were treated with various substance dilutions (1E-5 M, 3E-6 M, 1E-6 M, 3E-7 M, 1E-7 M, 3E-8 M, 1E-8 M) and incubated at 37° C. over 96 hours (MOLM-13, B16F10, CHL-1 cells) or 120 hours (MOLP-8 cells). Subsequently, the fluorescence values were determined (CO values). For the data analysis, the CI values were subtracted from the CO values and the results were compared between cells which had been treated with various dilutions of the substance or only with buffer solution. The IC50 values (substance concentration needed for 50% inhibition of cell proliferation) were calculated therefrom.
(§3) The substances were tested in the cell lines in Table 2, which represent the indications specified by way of example: […]

B16F10 cells = assay: Cell proliferation assay B16F10 (alamarBlue); type: cell-based; settings: Mus musculus, B16-F10, melanoma (BRAF wild-type) cells, 96 hours
Method: as §1
The B16F10 cells (ATCC, CRL-6475) were seeded at a concentration of 300-500 cells/well in 100 μl of growth medium (DMEM with phenol red, 10% FCS) on 96-well microtitre plates.
as §2, §3

[1] = biological target: T1, BRD4 bromo domain 2 [BRD4(2)] (Homo sapiens, UniProt O60885); assay: BRD4(2)/acetylated peptide H4 TR-FRET binding assay; settings: His6-BRD4(2) (aa 357-445) vs acetylated histone H4 peptide
T1 construct: N-terminally His6-tagged BRD4(2) (amino acids 357-445); made in house; host or cells: E. coli
From the text: To assess the BRD4(2) binding strength of the substances described in this application, the ability thereof to inhibit the interaction between BRD4(2) and acetylated histone H4 in a dose-dependent manner was quantified.
For this purpose, a time-resolved fluorescence resonance energy transfer (TR-FRET) assay was used, which measures the binding between N-terminally His6-tagged BRD4(2) (amino acids 357-445) and a synthetic acetylated histone H4 (Ac-H4) peptide with sequence SGRGK(Ac)GGK(Ac)GLGK(Ac)GGAK(Ac)RHRKVLRDNGSGSK-biotin. The recombinant BRD4(2) protein produced in-house according to Filippakopoulos et al., Cell, 2012, 149:214-231 was expressed in E. coli and purified by means of (Ni-NTA) affinity and (Sephadex G-75) size exclusion chromatography. The Ac-H4 peptide can be purchased, for example, from Biosyntan (Berlin, Germany).
In the assay, typically 11 different concentrations of each substance (0.1 nM, 0.33 nM, 1.1 nM, 3.8 nM, 13 nM, 44 nM, 0.15 μM, 0.51 μM, 1.7 μM, 5.9 μM and 20 μM) were analysed as duplicates on the same microtitre plate. For this purpose, 100-fold concentrated solutions in DMSO were prepared by serial dilutions (1:3.4) of a 2 mM stock solution into a clear, 384-well microtitre plate (Greiner Bio-One, Frickenhausen, Germany). From this, 50 nl were transferred into a black test plate (Greiner Bio-One, Frickenhausen, Germany). The test was started by the addition of 2 μl of a 2.5-fold concentrated BRD4(2) solution (final concentration typically 100 nM in the 5 μl of reaction volume) in aqueous assay buffer [50 mM HEPES pH 7.5, 50 mM sodium chloride (NaCl); 50 mM potassium fluoride (KF); 0.25 mM CHAPS and 0.05% serum albumin (BSA)] to the substances in the test plate. This was followed by a 10-minute incubation step at 22° C. for the pre-equilibration of putative complexes between BRD4(2) and the substances.
The mixture was then incubated in the dark at 22° C. for one hour and then at 4° C. for at least 3 hours and for no longer than overnight. The formation of BRD4(2)/Ac-H4 complexes was determined by the measurement of the resonance energy transfer from the streptavidin-Eu chelate to the anti-6His-XL665 antibody present in the reaction. For this purpose, the fluorescence emission was measured at 620 nm and 665 nm after excitation at 330-350 nm in a TR-FRET measuring instrument, for example a Rubystar or Pherastar (both from BMG Lab Technologies, Offenburg, Germany) or a Viewlux (Perkin-Elmer). The ratio of the emissions at 665 nm and at 622 nm was taken as an indicator of the amount of BRD4(2)/Ac-H4 complexes formed.
The data (ratios) obtained were normalized, with 0% inhibition corresponding to the mean from the measurements for a set of controls (typically 32 data points) in which all the reagents were present. In these, in place of test substances, 50 nl of DMSO (100%) were used. Inhibition of 100% corresponded to the mean from the measurements for a set of controls (typically 32 data points) in which all the reagents except BRD4(2) were present. The IC50 was determined by regression analysis based on a 4-parameter equation (minimum, maximum, IC50, Hill; Y=Max+(Min−Max)/(1+(X/IC50)Hill)).

CHL-1 cells = assay: Cell proliferation assay CHL-1 (alamarBlue); type: cell-based; settings: Homo sapiens, melanoma (BRAF wild-type) cells, 96 hours
Method: as §1
The CHL-1 cells (ATCC, CRL-9446) were seeded at a concentration of 1000 cells/well in 100 μl of growth medium (DMEM with glutamine, 10% FCS) on 96-well microtitre plates.
as §2, §3

SMILES | IC50 (MOLM-13 cells) | IC50 (B16F10 cells) | IC50 [1] | IC50 (CHL-1 cells)
CC(C)S(=O)(=O)c1cccc(Nc2ccc3c(n2)N(C2CCN(C)CC2)[C@H](C)C(=O)N3C)c1 [Example 19, (3R)-6-{[3-(Isopropylsulphonyl)phenyl]amino}-1,3-dimethyl-4-(1-methylpiperidin-4-yl)-3,4-dihydropyrido[2,3-b]pyrazin-2(1H)-one] | 13 nM | 45 nM | 47 nM | 17 nM
CC(C)S(=O)(=O)c1ccc(OC(F)(F)F)c(Nc2ccc3c(n2)N(C2CCN(C)CC2)[C@H](C)C(=O)N3C)c1 [Example 20, (3R)-6-{[5-(Isopropylsulphonyl)-2-(trifluoromethoxy)phenyl]amino}-1,3-dimethyl-4-(1-methylpiperidin-4-yl)-3,4-dihydropyrido[2,3-b]pyrazin-2(1H)-one] | 19 nM | 49 nM | 65 nM | 20 nM
COc1ccc(S(=O)(=O)C2CCOCC2)cc1Nc1ccc2c(n1)N(C1CCN(C)CC1)[C@H](C)C(=O)N2C [Example 22, (3R)-6-{[2-Methoxy-5-(tetrahydro-2H-pyran-4-ylsulphonyl)phenyl]amino}-1,3-dimethyl-4-(1-methylpiperidin-4-yl)-3,4-dihydropyrido[2,3-b]pyrazin-2(1H)-one] | 99 nM | 140 nM | 54 nM | 21 nM
COc1ccc(S(=O)(=O)C(C)C)cc1Nc1ccc2c(n1)N(C1CCN(CC(F)F)CC1)[C@H](C)C(=O)N2C [Example 29, (3R)-4-[1-(2,2-Difluoroethyl)piperidin-4-yl]-6-{[5-(isopropylsulphonyl)-2-methoxyphenyl]amino}-1,3-dimethyl-3,4-dihydropyrido[2,3-b]pyrazin-2(1H)-one] |  | 40 nM | 67 nM | 
COc1ccc(S(=O)(=O)C2CCOCC2)cc1Nc1ccc2c(n1)N(C1CCOCC1)[C@H](C)C(=O)N2C [Example 34, (3R)-6-{[2-Methoxy-5-(tetrahydro-2H-pyran-4-ylsulphonyl)phenyl]amino}-1,3-dimethyl-4-(tetrahydro-2H-pyran-4-yl)-3,4-dihydropyrido[2,3-b]pyrazin-2(1H)-one] | 32 nM | 32 nM | 44 nM | 30 nM
CC(C)S(=O)(=O)c1ccc(OC(F)(F)F)c(Nc2ccc3c(n2)N(C2CCOCC2)[C@H](C)C(=O)N3C)c1 [Example 38, (3R)-6-{[5-(Isopropylsulphonyl)-2-(trifluoromethoxy)phenyl]amino}-1,3-dimethyl-4-(tetrahydro-2H-pyran-4-yl)-3,4-dihydropyrido[2,3-b]pyrazin-2(1H)-one] | 32 nM | 16 nM | 52 nM | 24 nM
COc1ccc(S(=O)(=O)C(F)(F)F)cc1Nc1ccc2c(n1)N(C1CCOCC1)[C@H](C)C(=O)N2C [Example 39, (3R)-6-({2-Methoxy-5-[(trifluoromethyl)sulphonyl]phenyl}amino)-1,3-dimethyl-4-(tetrahydro-2H-pyran-4-yl)-3,4-dihydropyrido[2,3-b]pyrazin-2(1H)-one] | 137 nM | 84 nM | 56 nM | 

Further compounds by falling IC50 [1], results first:

IC50 (MOLM-13 cells) | IC50 (B16F10 cells) | IC50 [1] | SMILES | IC50 (CHL-1 cells)
121 nM | 269 nM | 94 nM | COc1cc(Nc2ccc3c(n2)N(C2CCOCC2)[C@H](C)C(=O)N3C)cc(S(C)(=O)=O)c1 [Example 40, (3R)-6-{[3-Methoxy-5-(methylsulphonyl)phenyl]amino}-1,3-dimethyl-4-(tetrahydro-2H-pyran-4-yl)-3,4-dihydropyrido[2,3-b]pyrazin-2(1H)-one] | 
69 nM |  | 83 nM | COc1ccc(S(C)(=O)=O)cc1Nc1ccc2c(n1)N(C1CCNCC1)[C@H](C)C(=O)N2C [Example 27, (3R)-6-{[2-Methoxy-5-(methylsulphonyl)phenyl]amino}-1,3-dimethyl-4-(piperidin-4-yl)-3,4-dihydropyrido[2,3-b]pyrazin-2(1H)-one] | 311 nM
14 nM |  | 68 nM | COc1ccc(S(=O)(=O)C(C)C)cc1Nc1ccc2c(n1)N(C1CCN(CCC(F)(F)F)CC1)[C@H](C)C(=O)N2C [Example 31, (3R)-6-{[5-(Isopropylsulphonyl)-2-methoxyphenyl]amino}-1,3-dimethyl-4-[1-(3,3,3-trifluoropropyl)piperidin-4-yl]-3,4-dihydropyrido[2,3-b]pyrazin-2(1H)-one] | 12 nM
26 nM | 21 nM | 63 nM | COc1ccc(S(=O)(=O)C(C)C)cc1Nc1ccc2c(n1)N(C1CCN(CC(F)(F)F)CC1)[C@H](C)C(=O)N2C [Example 28, (3R)-6-{[5-(Isopropylsulphonyl)-2-methoxyphenyl]amino}-1,3-dimethyl-4-[1-(2,2,2-trifluoroethyl)piperidin-4-yl]-3,4-dihydropyrido[2,3-b]pyrazin-2(1H)-one] | 25 nM
16 nM | 52 nM | 58 nM | COc1ccc(S(=O)(=O)C(F)(F)F)cc1Nc1ccc2c(n1)N(C1CCN(C)CC1)[C@H](C)C(=O)N2C [Example 21, (3R)-6-({2-Methoxy-5-[(trifluoromethyl)sulphonyl]phenyl}amino)-1,3-dimethyl-4-(1-methylpiperidin-4-yl)-3,4-dihydropyrido[2,3-b]pyrazin-2(1H)-one] | 16 nM
10 nM | 147 nM | 52 nM | COc1ccc(S(=O)(=O)C(C)C)cc1Nc1ccc2c(n1)N(C1CCNCC1)[C@H](C)C(=O)N2C [Example 26, (3R)-6-{[5-(Isopropylsulphonyl)-2-methoxyphenyl]amino}-1,3-dimethyl-4-(piperidin-4-yl)-3,4-dihydropyrido[2,3-b]pyrazin-2(1H)-one] | 22 nM
12 nM | 16 nM | 51 nM | COc1ccc(S(=O)(=O)C2CCC2)cc1Nc1ccc2c(n1)N(C1CCOCC1)[C@H](C)C(=O)N2C [Example 35, (3R)-6-{[5-(Cyclobutylsulphonyl)-2-methoxyphenyl]amino}-1,3-dimethyl-4-(tetrahydro-2H-pyran-4-yl)-3,4-dihydropyrido[2,3-b]pyrazin-2(1H)-one] | 10 nM
